Target: T1, Prostaglandin G/H synthase 2 (Homo sapiens, UniProt P35354)
T1 sequence (P35354 whole entry): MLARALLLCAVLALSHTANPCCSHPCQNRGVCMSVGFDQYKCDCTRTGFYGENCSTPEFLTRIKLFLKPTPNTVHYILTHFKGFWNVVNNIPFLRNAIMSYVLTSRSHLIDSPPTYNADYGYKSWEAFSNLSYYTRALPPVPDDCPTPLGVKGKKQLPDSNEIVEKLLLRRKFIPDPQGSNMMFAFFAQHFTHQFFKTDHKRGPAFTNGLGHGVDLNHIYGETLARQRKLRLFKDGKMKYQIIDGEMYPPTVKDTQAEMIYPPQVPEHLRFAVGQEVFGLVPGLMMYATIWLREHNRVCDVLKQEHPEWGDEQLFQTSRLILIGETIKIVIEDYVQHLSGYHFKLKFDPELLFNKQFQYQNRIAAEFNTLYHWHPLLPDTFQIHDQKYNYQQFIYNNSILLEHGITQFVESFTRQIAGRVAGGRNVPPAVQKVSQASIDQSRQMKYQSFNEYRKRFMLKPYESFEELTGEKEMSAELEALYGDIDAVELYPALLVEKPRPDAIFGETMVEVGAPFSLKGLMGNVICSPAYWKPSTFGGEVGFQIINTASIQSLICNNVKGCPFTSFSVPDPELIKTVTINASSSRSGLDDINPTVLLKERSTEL
Assay: Inhibition of COX2 assessed as inhibition of PGE2 production using arachidonic acid as substrate after 10 mins by ELISA

Structure (SMILES): O=C(O)/C=C/C12C=C(O)C(=O)C=C1C(=O)C1=Cc3cc(O)c(O)cc3O[C@@H](c3ccc(O)c(O)c3)[C@@H]12 (relative stereo)
- IC50: 9.8 µM

Structure (SMILES): O=C(O)/C=C/c1ccc2c(c1)O[C@@H](C(=O)O)[C@@H](c1ccc(O)c(O)c1)O2 (relative stereo)
- IC50: 52.6 µM

Structure (SMILES): O=C(O)/C=C/c1ccc2c(c1)O[C@H](c1cc(O)cc(O)c1)[C@H](C(=O)O)O2 [CAFFEICINIC ACID]
- IC50: 7.5 µM

Structure (SMILES): O=C1O[C@@H](c2ccc(O)c(O)c2)[C@H](C(=O)O)/C1=C\c1ccc(O)c(O)c1 [PHELLINSIN A]
- IC50: 42.6 µM

Source: ChEMBL document CHEMBL1938240, “Enzymatic transformation of caffeic acid with enhanced cyclooxygenase-2 inhibitory activity” (Bioorg Med Chem Lett, 2012)
